Measurements from patent US20230203098A1, “HUMAN TRANSFERRIN RECEPTOR BINDING PEPTIDE” (priority 2020, published 2023).
Read-outs that look alike come from different tables or passages of the source. One block for each compound: values may come before it. Where a SMILES comes first, the peptide text is derived from it. Bridges are numbered along the chain shown (N, C = ends). [ ]: non-standard residue; d: D form. The star is where a group is joined. X2 = O=C(O)c1cc(C(=O)*)ccc1-c1c2ccc(=O)cc-2oc2cc(O)ccc12; PEG12 = NCCOCCOCCOCCOCCOCCOCCOCCOCCOCCOCCOCCOCCC(=O)O; NMePhe(3-Cl) = CN[C@@H](Cc1cccc(Cl)c1)C(=O)O; NMeW = CN[C@@H](Cc1c[nH]c2ccccc12)C(=O)O; Lys(N3) = [N-]=[N+]=NCCCC[C@H](N)C(=O)O; NMeY = CN[C@@H](Cc1ccc(O)cc1)C(=O)O

Target: transferrin receptor (hTfR) (Homo sapiens, UniProt P02786)
Test: Intermolecular interaction evaluation test between transferrin receptor (hTfR) and peptide by surface plasmon resonance (SPR)
Type: binding
In short: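 hTfR captured on Ni-NTA chip then amine-coupled; peptides run single-cycle kinetics at 5–100 nM in 10 mM HEPES pH 8.0, 150 mM NaCl, 0.05% Tween 20, 0.1% BSA, 1.0% DMSO. KD from least-squares curve fitting of sensorgrams.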

[1] = SPR, peptides, linker-added peptides and FITC conjugates, Patent ID 203-230, read-out: KD
[2] = surface plasmon resonance, peptide vs hTfR, read-out: KD value, hTfR binding by SPR (class symbol)
[3] = surface plasmon resonance, hTfR, read-out: KD value for hTfR by SPR (class symbol)

Sequence of transferrin receptor (hTfR) (P02786 whole entry): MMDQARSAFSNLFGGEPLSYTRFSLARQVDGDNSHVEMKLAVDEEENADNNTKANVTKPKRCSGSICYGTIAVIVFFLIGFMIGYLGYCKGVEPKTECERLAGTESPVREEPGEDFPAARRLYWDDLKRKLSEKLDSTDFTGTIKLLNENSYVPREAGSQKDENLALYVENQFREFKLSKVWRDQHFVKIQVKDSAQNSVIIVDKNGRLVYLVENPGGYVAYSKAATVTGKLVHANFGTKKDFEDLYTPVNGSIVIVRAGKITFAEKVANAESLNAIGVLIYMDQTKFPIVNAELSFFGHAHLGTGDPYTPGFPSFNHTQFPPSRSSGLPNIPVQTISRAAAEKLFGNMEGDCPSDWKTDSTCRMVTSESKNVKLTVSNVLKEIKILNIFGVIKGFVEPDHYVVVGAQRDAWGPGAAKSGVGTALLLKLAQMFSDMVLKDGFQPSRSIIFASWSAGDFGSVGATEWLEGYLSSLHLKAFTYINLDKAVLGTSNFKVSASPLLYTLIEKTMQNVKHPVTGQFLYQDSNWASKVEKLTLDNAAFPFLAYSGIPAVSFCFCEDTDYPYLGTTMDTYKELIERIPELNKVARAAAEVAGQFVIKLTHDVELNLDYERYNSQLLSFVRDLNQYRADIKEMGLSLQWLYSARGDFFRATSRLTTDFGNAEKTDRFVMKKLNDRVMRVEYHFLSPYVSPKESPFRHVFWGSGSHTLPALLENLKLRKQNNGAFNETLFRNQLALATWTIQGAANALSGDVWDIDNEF

Kd [2]: 1 to 100 nM
Structure (SMILES): CC[C@H](C)[C@@H]1NC(=O)[C@H](Cc2ccc(OC)cc2)NC(=O)[C@H](Cc2ccc(O)cc2)NC(=O)[C@H](CC(N)=O)NC(=O)[C@H](Cc2c[nH]c3ccccc23)NC(=O)[C@H](C(C)C)NC(=O)[C@H](Cc2cccc(Cl)c2)N(C)C(=O)[C@H](C(C)C)NC(=O)[C@H](C)NC(=O)CSC[C@@H](C(=O)NCC(=O)NCC(=O)N[C@@H](CO)C(=O)NCC(=O)N[C@@H](CO)C(=O)NCC(=O)N[C@@H](CCCCN=[N+]=[N-])C(N)=O)NC(=O)[C@H](Cc2ccc(O)cc2)N(C)C(=O)[C@H](Cc2ccccc2)NC(=O)[C@@H](CCCNC(=N)N)NC(=O)[C@H](CCCCN)NC(=O)[C@H]([C@@H](C)CC)NC1=O [compound 314] ({CH2CO}-AV[NMePhe(3-Cl)]VWNYY(Me)IIK[dR]F[NMeY]CGGSGSG[Lys(N3)]-NH2; thioether N-15; C-terminus assumed)

Kd [3]: 1 to 100 nM
Structure (SMILES): CC[C@H](C)[C@@H]1NC(=O)[C@H](Cc2ccc(OC)cc2)NC(=O)[C@H](Cc2ccc(O)cc2)NC(=O)[C@H](CC(N)=O)NC(=O)[C@H](Cc2c[nH]c3ccccc23)N(C)C(=O)[C@H](C(C)C)NC(=O)[C@H](Cc2cccc(Cl)c2)N(C)C(=O)[C@H](C(C)C)NC(=O)[C@H](C)NC(=O)CSC[C@@H](C(=O)NCC(=O)NCC(=O)N[C@@H](CO)C(=O)NCC(=O)N[C@@H](CO)C(=O)NCC(=O)N[C@@H](CCCCN=[N+]=[N-])C(N)=O)NC(=O)[C@H](Cc2ccc(O)cc2)N(C)C(=O)[C@H](Cc2ccccc2)NC(=O)[C@@H](CCCCN)NC(=O)[C@H](CCCNC(=N)N)NC(=O)[C@H]([C@@H](C)CC)NC1=O [compound 406] ({CH2CO}-AV[NMePhe(3-Cl)]V[NMeW]NYY(Me)IIR[dK]F[NMeY]CGGSGSG[Lys(N3)]-NH2; thioether N-15)

Kd (SPR, hTfR, class symbols A-D, read-out: KD): 1 to 100 nM
Structure (SMILES): CC[C@H](C)[C@@H]1NC(=O)[C@H](Cc2ccc(OC)cc2)NC(=O)[C@H](Cc2ccc(O)cc2)NC(=O)[C@H](CC(N)=O)NC(=O)[C@H](Cc2c[nH]c3ccccc23)N(C)C(=O)[C@H](C(C)C)NC(=O)[C@H](Cc2cccc(Cl)c2)N(C)C(=O)[C@H](C(C)C)NC(=O)[C@H](C)NC(=O)CSC[C@@H](C(N)=O)NC(=O)[C@H](Cc2ccc(O)cc2)N(C)C(=O)[C@H](Cc2cccc(C(=O)O)c2)NC(=O)[C@@H](CCCNC(=N)N)NC(=O)[C@H](CCCNC(=N)N)NC(=O)[C@H]([C@@H](C)CC)NC1=O [compound 461]

Kd [3]: 1 to 100 nM
Structure (SMILES): CC[C@H](C)[C@@H]1NC(=O)[C@H](Cc2ccc(OC)cc2)NC(=O)[C@H](Cc2ccc(O)cc2)NC(=O)[C@H](CC(N)=O)NC(=O)[C@H](Cc2c[nH]c3ccccc23)N(C)C(=O)[C@H](C(C)C)NC(=O)[C@H](Cc2cccc(Cl)c2)N(C)C(=O)[C@H](C(C)C)NC(=O)[C@H](C)NC(=O)CSC[C@@H](C(N)=O)NC(=O)[C@H](Cc2ccc(O)cc2)N(C)C(=O)[C@H](Cc2ccccc2)NC(=O)[C@H](CCCNC(=N)N)NC(=O)[C@H](CCCNC(=N)N)N(C)C(=O)[C@H]([C@@H](C)CC)NC1=O [compound 381]

Kd (surface plasmon resonance, peptide vs hTfR, read-out: KD value for hTfR by SPR (class symbol)): 1 to 100 nM
Structure (SMILES): CC[C@H](C)[C@@H]1NC(=O)[C@H](Cc2ccc(O)cc2)NC(=O)[C@H](Cc2ccc(O)cc2)NC(=O)[C@H](CC(N)=O)NC(=O)[C@H](Cc2c[nH]c3ccccc23)NC(=O)[C@H](C(C)C)NC(=O)[C@H](Cc2ccccc2)N(C)C(=O)[C@H](C(C)C)NC(=O)[C@H](C)NC(=O)CSC[C@@H](C(=O)NCC(=O)N[C@H](CCC(=O)O)C(=O)N[C@H](CCC(=O)O)C(=O)NCC(=O)N[C@@H](CO)C(=O)N[C@@H](CO)C(=O)N[C@@H](CSCC(=O)NC)C(N)=O)NC(=O)[C@H](Cc2ccc(O)cc2)N(C)C(=O)[C@H](Cc2ccc(O)cc2)NC(=O)[C@H](CCCNC(=N)N)NC(=O)[C@H](CCCNC(=N)N)NC(=O)[C@H]([C@@H](C)CC)NC1=O [compound 425]

Kd [2]: 1 to 100 nM
Structure (SMILES): CC[C@H](C)[C@@H]1NC(=O)[C@H](Cc2ccc(O)cc2)NC(=O)[C@H](Cc2ccc(O)cc2)NC(=O)[C@H](CC(N)=O)NC(=O)[C@H](Cc2c[nH]c3ccccc23)NC(=O)[C@H](C(C)C)NC(=O)[C@H](Cc2ccccc2)N(C)C(=O)[C@H](C(C)C)NC(=O)[C@H](C)NC(=O)CSC[C@@H](C(N)=O)NC(=O)[C@H](Cc2ccc(O)cc2)N(C)C(=O)[C@H](Cc2ccc(O)cc2)NC(=O)[C@H](CCCNC(=N)N)NC(=O)[C@H](CCCNC(=N)N)NC(=O)[C@H]([C@@H](C)CC)NC1=O [compound 296]

Continued, compound first:

Structure (SMILES): CC[C@H](C)[C@@H]1NC(=O)[C@H](Cc2ccc(OC)cc2)NC(=O)[C@H](Cc2ccc(O)cc2)NC(=O)[C@H](CC(N)=O)NC(=O)[C@H](Cc2c[nH]c3ccccc23)N(C)C(=O)[C@H](C(C)C)NC(=O)[C@H](Cc2cccc(Cl)c2)N(C)C(=O)[C@H](CCC(=O)O)NC(=O)[C@H](C)NC(=O)CSC[C@@H](C(N)=O)NC(=O)[C@H](Cc2ccc(O)cc2)N(C)C(=O)[C@H](Cc2ccccc2)NC(=O)[C@H](CCCCN)NC(=O)[C@H](C)NC(=O)[C@H]([C@@H](C)CC)NC1=O [compound 225] ({CH2CO}-AE[NMePhe(3-Cl)]V[NMeW]NYY(Me)IIAKF[NMeY]C-NH2; thioether N-15)
Kd [1]: 1 to 100 nM

Structure (SMILES): CC[C@H](C)[C@@H]1NC(=O)[C@H](Cc2ccc(O)cc2)NC(=O)[C@H](Cc2ccc(O)cc2)NC(=O)[C@H](CC(N)=O)NC(=O)[C@H](Cc2c[nH]c3ccccc23)NC(=O)[C@H](C(C)C)NC(=O)[C@H](Cc2ccccc2)NC(=O)[C@H](C(C)C)NC(=O)[C@H](C)NC(=O)CSC[C@@H](C(=O)NCCOCCOCCOCCOCCOCCOCCOCCOCCOCCOCCOCCOCCC(=O)N[C@@H](CCCCNC(=O)c2ccc(-c3c4ccc(=O)cc-4oc4cc(O)ccc34)c(C(=O)O)c2)C(N)=O)NC(=O)[C@H](CC(=O)O)NC(=O)[C@H](CCCNC(=N)N)NC(=O)[C@@H]2CCCN2C(=O)[C@H](C(C)C)NC1=O [compound 209] ({CH2CO}-AVFVWNYYIVPRDC[PEG12]K(X2)-NH2; thioether N-14)
Kd [1]: 1 to 100 nM

Structure (SMILES): CC[C@H](C)[C@@H]1NC(=O)[C@H](Cc2ccc(OC)cc2)NC(=O)[C@H](Cc2ccc(O)cc2)NC(=O)[C@H](CC(N)=O)NC(=O)[C@H](Cc2c[nH]c3ccccc23)N(C)C(=O)[C@H](C(C)C)NC(=O)[C@H](Cc2cccc(Cl)c2)N(C)C(=O)[C@H](C(C)C)NC(=O)[C@H](C)N(C)C(=O)CSC[C@@H](C(N)=O)NC(=O)[C@H](Cc2ccc(O)cc2)N(C)C(=O)[C@H](Cc2ccccc2)NC(=O)[C@H](CCCNC(=N)N)NC(=O)[C@H](CCCCN)NC(=O)[C@H]([C@@H](C)CC)NC1=O [compound 213]
Kd [1]: 1 to 100 nM

Structure (SMILES): CC[C@H](C)[C@@H]1NC(=O)[C@H](Cc2ccc(OC)cc2)NC(=O)[C@H](Cc2ccc(O)cc2)NC(=O)[C@H](CC(N)=O)NC(=O)[C@H](Cc2c[nH]c3ccccc23)N(C)C(=O)[C@H](C(C)C)NC(=O)[C@H](Cc2cccc(Cl)c2)N(C)C(=O)[C@H](CCC(=O)O)NC(=O)[C@H](C)NC(=O)CSC[C@@H](C(=O)NCC(=O)NCC(=O)NCC(=O)NCC(=O)N[C@@H](CO)C(=O)N[C@@H](CO)C(=O)N[C@@H](CS)C(N)=O)NC(=O)[C@H](Cc2ccc(O)cc2)N(C)C(=O)[C@H](Cc2ccccc2)NC(=O)[C@@H](CCCNC(=N)N)NC(=O)[C@H](CCCCN)NC(=O)[C@H]([C@@H](C)CC)NC1=O [compound 229]
Kd [1]: 1 to 100 nM
